Source: patent US20250003972A1, “A METHOD OF DETERMINING THE PRESENCE OF AN ANALYTE IN A SAMPLE” (Valitacell Limited, priority 2021, published 2025)

Test system: non-monomer IgG
Assay: DAOTA fluorescence polarisation (FP) assay: HMWS IgG (non-monomer) spiked into monomer IgG in culture media
Format: binding
Conditions: cell culture media; FP (mP) signal vs percentage non-monomer
Protocol: Non-monomer IgG was sourced internally. This was obtained by size exclusion chromatography from Chinese Hamster Ovary (CHO) cell supernatant (this is a naturally occurring non-monomer IgG).
FP readings were made using an BMG Pherastar plate reader (BMG, […], Germany) in black half area NBS plates in a total of 120 ul (Corning, New York, USA).
For DAOTA FP assays, high molecular weight species (HMWS) of IgG (non-monomer) was spiked into monomer IgG in various proportions in 120 ul total of culture media (CD-CHO, ThermoFisher, UK) at a constant at a concentration of 200 mg/L. 0.1 ug of an N′-propyl, N-propyl derivative of diazaoxatriangulenium (N′PNP-DAOTA) was added, and the polarization signal was measured after 5 minutes incubation in the dark.

Row | Molecule | binding to non-monomer IgG / IgG aggregates (FP polarisation signal)
1 | N-butanoic acid aza-di-oxa-triangulenium [N-Phenyl-ADOTA] | did not bind to IgG aggregates
2 | CCCn1c2cccc3oc4cccc5c4[c+](c32)c2c1cccc2n5CCC [N′PNP-DAOTA, N′-propyl, N-propyl derivative of diazaoxatriangulenium] | binds to non-monomer IgG
